We go through 10 compounds from PubChem BioAssay (NCI).

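Protocol summary: plate cells (96-well), add compound at 5 concentrations, incubate 48 h, interpolate endpoints linearly. GI50 = concentration required for 50% inhibition of growth. TGI: concentration producing complete growth inhibition.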

Test systems include DMS 114 small cell lung; DMS 273 small cell lung; HOP-18 NSCLC; M19-MEL melanoma; XF 498 CNS; RXF-631 renal; P388 leukemia; P388/ADR leukemia; SN12K1 renal.
Holding throughout (experiment): NCI tumour cell line growth inhibition, 48 h

Regarding `CCN(CCO)CCNc1ccc(C)c2sc3ccccc3c(=O)c12`, the TGI was determined as 20.6 µM in the assay on DMS 114 small cell lung; 6.94 µM in the assay with DMS 273 small cell lung; 24.3 µM with HOP-18 NSCLC; 3.63 µM in the assay with M19-MEL melanoma; 10 µM with XF 498 CNS.

Take `COc1ccc(N=Nc2c(N)nn(C)c2N)cc1`: the TGI in the assay on DMS 114 small cell lung, in the assay with DMS 273 small cell lung, with HOP-18 NSCLC, with M19-MEL melanoma and with RXF-631 renal was > 100 µM each time.

Turning to `O=C(NC(Cc1ccc(Cl)cc1)C(=O)O)c1ccc(I)cc1` (stereo unspecified), the TGI in the assay with DMS 273 small cell lung, with HOP-18 NSCLC, with M19-MEL melanoma, with P388 leukemia, with P388/ADR leukemia and with SN12K1 renal was > 100 µM in each case. The TGI in the assay with XF 498 CNS is > 100 µM.

With `CCCCCCCCCCCCSC(=S)c1c(C)[nH]n(CCCCCCCCCCCC)c1=O`, the TGI in the assay with DMS 114 small cell lung, with HOP-18 NSCLC, with M19-MEL melanoma and with RXF-631 renal was > 100 µM in each case.

On to `COc1cc(C2C(=O)C(Cl)N2Nc2nc(C)cc(=O)[nH]2)cc(OC)c1OC` (stereo unspecified), for which the results for the TGI with DMS 273 small cell lung, in the assay with HOP-18 NSCLC and with M19-MEL melanoma were 24.2 µM, 28.1 µM and > 100 µM, respectively.

For `C[C@H]1CCC/C=C/[C@@H]2C[C@H](O)C[C@H]2[C@H](O)/C=C/C(=O)O1`, the GI50 with DMS 273 small cell lung was 30.5 nM. Moreover, the TGI amounted to 0.148 µM in the assay with DMS 273 small cell lung, 2.41 µM in the assay on HOP-18 NSCLC, 0.00129 µM with M19-MEL melanoma and 0.272 µM in the assay with RXF-631 renal.

Turning to `CN1NC(c2ccccc2)=C(C#N)C(=O)CC1c1ccc(F)cc1` (stereo unspecified), the TGI in the assay with DMS 114 small cell lung, in the assay on DMS 273 small cell lung, in the assay with HOP-18 NSCLC, in the assay on RXF-631 renal and with XF 498 CNS was > 100 µM in each case.

Take `O=C(CSSCC(=O)OCCS(=O)(=O)Nc1ccc(Br)cc1)OCCS(=O)(=O)Nc1ccc(Br)cc1`: the TGI was 29.3 µM in the assay with DMS 114 small cell lung, 40.3 µM in the assay with DMS 273 small cell lung, > 100 µM with HOP-18 NSCLC and 56.4 µM in the assay on M19-MEL melanoma.

On to `COc1cccc(NC(=O)CC(=O)NN2C(=O)/C(=C/c3ccc(N(CCC#N)CCC#N)cc3)N=C2c2cc([N+](=O)[O-])ccc2Cl)c1`, for which the TGI in the assay with DMS 114 small cell lung, in the assay with DMS 273 small cell lung, with M19-MEL melanoma, with RXF-631 renal and with XF 498 CNS was > 100 µM each time.

`Cc1ccc(C(=O)Nc2ncn(C3CC(O)C(CO)O3)c(=O)n2)cc1` (stereo unspecified): the TGI was > 100 µM in the assay with DMS 114 small cell lung; > 100 µM in the assay on DMS 273 small cell lung; > 100 µM with HOP-18 NSCLC; > 100 µM with M19-MEL melanoma; > 100 µM in the assay on P388 leukemia; 29.5 µM in the assay with P388/ADR leukemia. The TGI with SN12K1 renal and in the assay on XF 498 CNS was > 100 µM in each case.
